{"source": "patent US9303069B2", "about": "“Peptides for treating cancer” (University of Mississippi Medical Center, priority 2014, dated 2016)", "format_in_all_cases": "cell-based, human", "key": {"[1]": {"system": "HOSE and HOSE/IRIS cells", "experiment": "Survival of HOSE versus HOSE/IRIS cells", "details": "10 μM inhibitor, 24 hours", "procedure": "To test that, HOSE or HOSE/IRIS cells were incubated for 24 hours with 10 μM of ErbB2 (CP-724714), EGFR (Erlotinib), TrkB (K252a), JNK (SP600125), p38 (SB203580), ERK (PD98059) and PI3′K/AKT (LY294002) inhibitors. […] Taken together, BRCA1-IRIS overexpression activates AKT and ERK, thereby inactivating FOXO3a and promoting Cyclin D1, survivin, Bcl-2 and NF-κB expression and suppressing p27 expression (FIG. 15).\nHOSE cells overexpressing IRIS show a higher degree of resistance to cisplatin than HOSE cells (compare blue to black line in FIG. 30).\nCell viability measurement. Cell viability under different experimental conditions was determined using the MTS assay […]. Briefly, SKOV3, OVACAR3, HOSE and HOSE/IRIS cells (2.5×10^4 cells per well) were seeded in 96 well plates and incubated overnight at 37° C. in 10% humidified CO2 atmosphere in varying concentrations of IRIS peptide, or inhibitors of ErbB2 (CP-724714), EGFR (Erlotinib), TrkB (K252a), JNK (SP600125), p38 (SB203580), ERK (PD98059) and PI3′K/AKT (LY294002) inhibitors for 24 hours at 37° C. Cell Titer 96® Aqueous (Promega, Madison, Wis., USA) was used to measure viability following manufactures instructions. Cell viability (%) was expressed as a ratio to control cells×100. Growth inhibition was also determined by manually counting cells in five different microscopic fields. Change in cell numbers (fold) was expressed as a ratio to control cells×100. All experiments were done in at least triplicates, three different times. * is p≦0.05, ** is p≦0.001 and *** is p≦0.0001."}, "[2]": {"system": "HME and HME/IRIS cells", "experiment": "Survival of HME versus HME/IRIS cells with pathway inhibitors", "details": "10 μM inhibitor, 24 hours", "procedure": "Similar numbers of HME or HME/IRIS were grown in the presence of 10 μM of ERK (PD98059), JNK (SP600125), p38 (SB203580), EGFR (Erlotinib), ErbB2 (CP-724714) or PI3′K/AKT (LY294002) inhibitors for 24 hours. In keeping with published data (Nakuci et al., 2006; Hao and ElShamy, 2007; Chock et al., 2010a), BRCA1-IRIS overexpression promoted cells proliferation (FIG. 73). Thus, data are represented as percentage of treatment compared to no treatment in each cell line separately. […] Thus, as expected, cells overexpressing BRCA1-IRIS exerts some of their functions through EGFR/ErbB2 that feeds into PI3′K/AKT/mTOR and MAPK signaling pathways (FIG. 74).\nCell viability measurement. Cell viability under different experimental conditions was determined using the MTS assay. Briefly, cells (2.5×10^4 cells per well) were seeded in 96-well plates and incubated overnight at 37° C. in 10% humidified CO2 atmosphere. The next day they were incubated with varying concentration of peptide, or inhibitors for 24 hours at 37° C. Cell viability was determined using cell Titer 96® Aqueous (Promega, Madison, Wis., USA) following manufacturer's instructions. Cell viability (%) was expressed as a ratio of treated cells to control cells×100. Growth inhibition was also determined by manually counting cells in five different microscopic fields. Change in cell numbers (fold) was expressed as a ratio of the means of these recording of treated cells compared to control cells×100. Each experiment was done in triplicate, repeated three separate times."}, "[3]": {"system": "AKT, ERK, MDM2 and Skp2", "experiment": "Signalling proteins in SKOV3 and OVCAR3 cells (Western)", "text": "Finally, to further dissect the IRIS-induced cisplatin resistance pathway, PI3′K/AKT (using […]) and ERK (using PD98059) were inactivated and compared to IRIS peptide in two aggressive ovarian cancer cell lines. […] Phosphorylation of cytoplasmic or nuclear FOXO3a by p-AKT and/or p-ERK promotes MDM2 binding and priming ubiquitylation, which is then followed by Skp2 branching ubiquitylation and FOXO3a degradation (Huang and Tindall, 2011). FOXO was less phosphorylated in LY, PD as well as IRIS-silenced/inactivated SKOV3 or OVCAR3 cells (FIG. 34). […] Consistently, in BRCA1-IRIS silenced/inactivated cells accumulation of unphosphorylated/stabilized FOXO3a was detected. In contrast, FOXO3a was still decreased to different degrees in LY or PD treated cells (FIG. 34)."}, "[4]": {"system": "BRCA1-IRIS", "experiment": "BRCA1-IRIS expression in breast cells (Western)", "details": "MDA-MB-231 and MDA-MB-468; 5 μM IRIS peptide, 10 μM LY294002 or 10 μM PD98059 24 hours; siRNA 72 hours", "procedure": "HME and HME/IRIS cells were treated with 10, 20 and 50 μM of paclitaxel for 24 hours. Compared to HME/IRIS cells, untreated HME cells express very low level of BRCA1-IRIS (FIG. 68, left). […] Both EGF and NRG1, which were secreted at higher levels from untreated HME/IRIS cells, remained high after paclitaxel (until ˜50 μM, FIG. 68, left), whereas in HME cells, both were induced by low paclitaxel treatment (FIG. 68, left). Consistently, in HME/IRIS cells EGFR was phosphorylated on Y1173 (activated by EGF when EGFR is in complex with ErbB2) and ErbB2 on Y1248 (activated by NRG1 when ErbB2 is in complex with ErbB3) remained the same after paclitaxel treatment (until ˜50 μM, FIG. 68, left). Phosphorylated EGFR-Y1173 and ErbB2-Y1248 was only observed in paclitaxel treated HME cells, especially at low concentration (FIG. 68, left).\nSurvived/paclitaxel-resistant cells were then propagated in the absence of paclitaxel and analyzed. Again, the intrinsically high level of BRCA1-IRIS was not affected by paclitaxel in HME/IRIS cells (FIG. 69, left). […] The expressions of EGFR, ErbB2 and ErbB3 were high in HME/IRIS and HME cells (FIG. 69, left). Despite an intrinsic increase in HME/IRIS and paclitaxel-acquired increase in HME cells in AKT activation, FOXO inactivation/degradation and thus activation increase in CyclinD1, survivin, Bcl-2, Bcl-xL and NF-κB was observed (FIG. 69, right).\nTo test that hypothesis, an intron 11 peptide (right in FIG. 26) fused to a cell/nucleus penetrating signal at its N-terminus (left in FIG. 26) was synthesized (hereafter IRIS peptide). First, to assess the effect of this IRIS peptide, equal numbers of HME, HME/IRIS, MDA-MB-231, MDA-MB-468 and BT549 cells were exposed to increasing concentrations of scrambled or IRIS peptide for 48 hours. […] It is possible that preventing BRCA1-IRIS-X complex formation destabilizes BRCA1-IRIS and perhaps leads to its degradation.\nTo investigate whether inactivating BRCA1-IRIS could sensitize TNBC to paclitaxel-induced cell death, HME cells were exposed to 0.5 μM, while HME/IRIS, MDA-MB-231, MDA-MB-468 and BT549 cells were exposed to 5 μM of IRIS peptide alone or with 5, 10 or 20 μM of paclitaxel for 24 hours. […] Again, IRIS peptide alone at these concentrations led to 50% reduction in survival of all cell lines. […] Indeed, in the presence of IRIS peptide >60%, >70% and >90% reduction in the survival of all cell lines in the presence of 5, 10 and 20 μM of paclitaxel, respectively (FIG. 84).\nTo relate the effect of IRIS peptide on cell survival to the effect of BRCA1-IRIS on AKT and ERK survival pathways, MDA-MB-231 and MDA-MB-468 were treated with vehicle, 5 μM of IRIS peptide, 10 μM LY294002, 10 μM PD98059 for 24 hours or were transfected with BRCA1-IRIS siRNA for 72 hours."}, "[5]": {"system": "AKT, p-AKT, p-FOXO and FOXO3a", "experiment": "Signalling proteins in MDA-MB-231 and MDA-MB-468 cells (Western)", "details": "5 μM IRIS peptide, 10 μM LY294002 or 10 μM PD98059, 24 hours", "text": "This was completely in line with decreased MDM2 and Skp2 (the ubiquitin ligases responsible for p-FOXO degradation) expression in BRCA1-IRIS silenced and BRCA1-IRIS and AKT inactivated cells (FIG. 87)."}}, "data": [{"smiles": "COCC(=O)NC/C=C/c1ccc2ncnc(Nc3ccc(Oc4ccc(C)nc4)c(C)c3)c2c1", "note": "[CP-724714]", "values": [{"measurement": "effect on survival of HOSE versus HOSE/IRIS cells", "setting": "[1]", "value": "significantly decreased survival of HOSE/IRIS cells only"}, {"measurement": "effect on survival of HME versus HME/IRIS cells", "setting": "[2]", "value": "specifically reduced survival in HME/IRIS and not HME cells"}]}, {"smiles": "C#Cc1cccc(Nc2ncnc3cc(OCCOC)c(OCCOC)cc23)c1", "note": "[Erlotinib]", "values": [{"measurement": "effect on survival of HOSE versus HOSE/IRIS cells", "setting": "[1]", "value": "equally decreased survival of HOSE and HOSE/IRIS cells"}, {"measurement": "effect on survival of HME versus HME/IRIS cells", "setting": "[2]", "value": "reduced survival of both cell lines"}]}, {"smiles": "COC(=O)[C@@]1(O)C[C@H]2O[C@]1(C)n1c3ccccc3c3c4c(c5c6ccccc6n2c5c31)C(=O)NC4", "note": "[K252a]", "values": [{"measurement": "effect on survival of HOSE versus HOSE/IRIS cells", "setting": "[1]", "value": "significantly decreased survival of HOSE/IRIS cells only"}]}, {"smiles": "COc1cccc(-c2cc(=O)c3ccccc3o2)c1N", "note": "[PD98059]", "values": [{"measurement": "effect on survival of HOSE versus HOSE/IRIS cells", "setting": "[1]", "value": "significantly decreased survival of HOSE/IRIS cells only"}, {"measurement": "AKT and ERK expression and activation", "setting": "[3]", "value": "significantly inactivated their cognate protein"}, {"measurement": "MDM2 and Skp2 expression", "setting": "[3]", "value": "reduced Skp2 and not MDM2 expression"}, {"measurement": "effect on survival of HME versus HME/IRIS cells", "setting": "[2]", "value": "specifically reduced survival in HME/IRIS and not HME cells"}, {"measurement": "BRCA1-IRIS expression", "setting": "[4]", "value": "significantly reduced BRCA1-IRIS expression in MDA-MB-231 and to a lesser degree in MDA-MB-468"}, {"measurement": "p-FOXO and FOXO3a levels", "setting": "[5]", "value": "no effect"}]}, {"smiles": "C[S+]([O-])c1ccc(-c2nc(-c3ccncc3)c(-c3ccc(F)cc3)[nH]2)cc1", "note": "(stereo not shown) [SB203580]", "values": [{"measurement": "effect on survival of HOSE versus HOSE/IRIS cells", "setting": "[1]", "value": "equally decreased survival of HOSE and HOSE/IRIS cells"}, {"measurement": "effect on survival of HME versus HME/IRIS cells", "setting": "[2]", "value": "no effect on either cell line"}]}]}
